Legend:
5α-reductase [1] = target: T1, 5α-reductase (Homo sapiens, UniProt P31213); experiment: In vitro assay of 5α-reductase inhibition (particulate fraction from homogenates of hyperplastic human prostates, [14C] testosterone); assay type: biochemical; conditions: human prostate particulate fraction, pH 5.5, 1 μM [14C] testosterone, 30 min, 37° C.
T1 construct: particulate fraction from homogenates of hyperplastic human prostates; from tissue; host or cells: hyperplastic human prostate, particulate fraction (140,000×g pellet)
T1 sequence (P31213 1-254): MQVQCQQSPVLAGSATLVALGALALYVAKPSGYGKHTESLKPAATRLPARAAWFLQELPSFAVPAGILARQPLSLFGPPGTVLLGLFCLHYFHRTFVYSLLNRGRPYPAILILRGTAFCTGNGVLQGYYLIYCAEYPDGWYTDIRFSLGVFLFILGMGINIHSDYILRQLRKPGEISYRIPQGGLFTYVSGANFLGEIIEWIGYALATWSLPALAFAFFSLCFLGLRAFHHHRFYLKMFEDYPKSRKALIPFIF
Description: Inhibition of 5α-reductase was evaluated using the particulate fraction from homogenates of hyperplastic human prostates as the enzyme source. The particulate fraction was prepared centrifuging prostate homogenate at 140,000×g. The resulting pellet, washed several times, was resuspended in buffer and stored at -80° C. in aliquots containing ≈10 mg protein/mi.
The assay for 5α-reductase was done in a final volume of 0.5 ml, in 40 mM TRIS-HCl buffer pH 5.5, containing 1 mM dithiothreitol, 5 mM NADPH, 1 μM [^14 C] testosterone, an aliquot of the enzyme preparation and various of the inhibitors. After 30 min incubation at 37° C. the reaction was terminated by addition of 2 ml cold diethyl ether and the organic phase was separated, evaporated under N2 and resuspended in ethyl acetate. Testosterone metabolites in this extract were separated in TLC on silica gel F 254 plates (Merck), using chloroform, acetone and n-hexane (2:1:2) as developing solvent system.
Radioactivity on the plate was scanned and analyzed from quantitative plots printed by a TLC-analyzer (Berthold). The fractional 5α-reduction of testosterone was calculated by relating the ^14 C-radioactivity in the 5α-reduced metabolites (5α-dihydrotestosterone, 3α- and 3β-androstanediols) regions to the total radioactivity in the testosterone and 5α-reduced metabolites regions. […]

5α-reductase [2] = experiment: In vivo inhibition of 5α-reductase (antiandrogenic effect, ventral prostate weight in castrated, testosterone-implanted rats); conditions: rat, once daily for 7 consecutive days
Description: The standard test for the antiandrogenic effect in rats was used. Prepuberal 22-day-old male rats were castrated via scrotal incision under light ether anaesthesia. […] Control animals (testosterone controls) received the vehicle (0.5 ml/kg of 0.5% Methocel/0.4% Tween 80). One group of castrated rats was not implanted with testosterone (castrated controls).
The mean percentage of inhibition of the T-induced hypertrophic response of the prostate was calculated according to the following formula: […]

- IC50 (5α-reductase [1]): 21 nM
SMILES: C[C@]12C=CC(=O)N[C@@H]1CC[C@@H]1[C@@H]2CC[C@]2(C)[C@@H](C(=O)NC(c3ccccc3)C(F)(F)F)CC[C@@H]12 (stereo partly drawn) [Compound 40, N-(2,2,2-trifluorophenylethyl) 3-oxo-4-aza-5α-androst-1-ene-17β-carboxamide]
- % INHIBITION OF PROSTATE WEIGHT AT 3 mg/kg/day p.o. (5α-reductase [2]): 51%

Reference: patent US5407939A, “Fluorinated 17 β-substituted 4-aza-5 α-androstan-3-one derivatives” (Farmitalia Carlo Erba S.R.L., priority 1992, dated 1995)
